Results: US20060223846A1, “Aza-bridged-bicyclic amino acid derivatives as alpha4 integrin antagonists” (priority 2005, published 2006)

Assays:
[1] = tested on: α4β7 integrin-positive cells; assay: Intraperitoneal Delayed Type Hypersensitivity (IP-DTH) Response, ovalbumin challenge; assay type: in vivo; details: 80 mg/kg, sc, qd × 2; mice, 48 hours after antigen challenge
Excerpt: Intraperitoneal Delayed Type Hypersensitivity (IP-DTH) Response. A Method for Analyzing Effects of Integrin Antagonists In Vivo
Background: Integrin antagonists are meant to interfere with the binding or adhesion of immune cells, such as lymphocytes, monocytes and eosinophils that bear integrin receptors to counter-receptors that exist on endothelial cells in the vasculature. Among those integrin-bearing cells, cells that are positive for α4β7 integrin are found in the mesenteric system and in the gut, and would comprise many of the cells recruited to a peritoneal antigen challenge. One can maximize the number of α4β7 integrin-positive cells recruited by inducing an intraperitoneal delayed type hypersensitivity response to antigen that will recruite antigen-responsive cells from the mesenteric lymph nodes. An inhibitor of α4β7 integrin should prevent the recruitment of these cells to the site of antigen challenge. […]
The cells were stained with fluorochrome-coupled antibody to α4β7 integrin or a primary antibody to α4β7 integrin followed by a secondary fluorochrome-coupled antibody. […] The cells were then transferred to test tubes and maintained at 4° C. until analyzed by flow cytometry to determine numbers of α4β7-postive cells. […]

[2] = target: α4β1 (Homo sapiens, UniProt P05556+P13612); assay: Ramos Cell Adhesion Assay (α4β1 Mediated Adhesion/VCAM-1); assay type: cell-based; design: Ramos cells, (50 μL at 2×10^6/mL) labeled with 5 μM Calcein AM; endogenous in cells; host or cells: Ramos cells; details: Ramos cells on recombinant hVCAM-1; read-out: α4β1 IC50
Chain of α4β1 (P13612 34-1032): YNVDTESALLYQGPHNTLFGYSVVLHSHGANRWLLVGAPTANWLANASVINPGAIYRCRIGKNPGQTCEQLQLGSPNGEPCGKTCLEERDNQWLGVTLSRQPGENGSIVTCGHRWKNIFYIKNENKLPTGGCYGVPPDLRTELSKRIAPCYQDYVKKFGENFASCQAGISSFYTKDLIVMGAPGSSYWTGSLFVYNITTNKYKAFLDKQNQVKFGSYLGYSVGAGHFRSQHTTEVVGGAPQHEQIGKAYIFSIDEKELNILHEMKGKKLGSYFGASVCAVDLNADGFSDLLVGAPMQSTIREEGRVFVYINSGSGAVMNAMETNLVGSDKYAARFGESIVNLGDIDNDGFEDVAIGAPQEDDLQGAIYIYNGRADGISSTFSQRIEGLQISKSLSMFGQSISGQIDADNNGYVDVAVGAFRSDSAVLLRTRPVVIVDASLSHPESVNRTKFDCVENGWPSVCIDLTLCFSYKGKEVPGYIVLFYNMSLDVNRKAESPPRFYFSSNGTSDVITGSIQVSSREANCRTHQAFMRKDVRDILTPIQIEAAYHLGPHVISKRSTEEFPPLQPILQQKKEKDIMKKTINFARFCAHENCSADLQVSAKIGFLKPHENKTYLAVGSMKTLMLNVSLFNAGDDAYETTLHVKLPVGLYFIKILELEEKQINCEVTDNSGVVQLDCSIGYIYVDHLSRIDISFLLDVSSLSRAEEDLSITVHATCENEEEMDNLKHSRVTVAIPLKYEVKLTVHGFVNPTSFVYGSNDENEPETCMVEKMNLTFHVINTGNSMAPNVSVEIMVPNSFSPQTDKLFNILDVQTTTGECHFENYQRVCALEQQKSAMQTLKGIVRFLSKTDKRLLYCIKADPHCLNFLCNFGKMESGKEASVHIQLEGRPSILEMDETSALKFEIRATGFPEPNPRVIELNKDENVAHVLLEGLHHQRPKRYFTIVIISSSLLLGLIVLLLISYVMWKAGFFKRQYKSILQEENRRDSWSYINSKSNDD
Chain of α4β1 (P05556 21-798): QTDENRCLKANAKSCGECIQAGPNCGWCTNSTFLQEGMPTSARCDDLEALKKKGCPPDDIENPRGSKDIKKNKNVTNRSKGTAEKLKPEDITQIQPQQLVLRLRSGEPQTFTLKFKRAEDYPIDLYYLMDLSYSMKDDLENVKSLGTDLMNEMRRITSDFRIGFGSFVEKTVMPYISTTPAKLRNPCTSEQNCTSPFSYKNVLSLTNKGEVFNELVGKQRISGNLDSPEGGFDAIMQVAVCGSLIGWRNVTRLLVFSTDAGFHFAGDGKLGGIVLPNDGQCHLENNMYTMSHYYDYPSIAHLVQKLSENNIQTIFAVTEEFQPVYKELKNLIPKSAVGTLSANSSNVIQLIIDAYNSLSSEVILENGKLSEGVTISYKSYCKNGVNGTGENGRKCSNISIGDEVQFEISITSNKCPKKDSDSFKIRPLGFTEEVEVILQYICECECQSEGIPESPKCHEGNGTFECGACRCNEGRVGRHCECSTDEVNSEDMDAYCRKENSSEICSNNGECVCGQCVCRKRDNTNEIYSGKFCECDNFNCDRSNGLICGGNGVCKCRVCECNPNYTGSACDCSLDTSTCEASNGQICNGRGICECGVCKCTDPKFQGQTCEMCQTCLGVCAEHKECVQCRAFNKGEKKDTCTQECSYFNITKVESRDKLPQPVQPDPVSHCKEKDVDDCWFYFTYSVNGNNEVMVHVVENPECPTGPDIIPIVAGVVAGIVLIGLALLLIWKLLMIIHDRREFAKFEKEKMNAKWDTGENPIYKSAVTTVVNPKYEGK
Outline: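 Ramos cells labeled with 5 μM Calcein AM adhered for 1 h at room temperature to wells coated with recombinant human VCAM-1 (4.0 μg/mL, pH 9.0) in presence of compounds. After washing, cells lysed in SDS buffer; fluorescence read at 485/530 nm.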

With `CC(C)(C)CCN1C2CCC(CC2)[C@H]1C(=O)N[C@@H](Cc1ccc(NC(=O)c2c(Cl)cncc2Cl)cc1)C(=O)O` [Cpd 16, 3-{4-[(3,5-dichloro-pyridine-4-carbonyl)-amino]-phenyl}-2-{[2-(3,3-dimethyl-butyl)-2-aza-bicyclo[2.2.2]octane-3-carbonyl]-amino}-propionic acid] the “Percent Decrease in recruited α4β7+ cells” value [1] was 56% and the IC50 [2] was 47 nM.
`O=C(Nc1ccc(CC(NC(=O)C2C3CCC(CC3)N2C(=O)Cc2ccsc2)C(=O)O)cc1)c1c(Cl)cncc1Cl` (stereo not shown) [Cpd 3] was tested, and the “Percent Decrease in recruited α4β7+ cells” value [1] was 20% and the IC50 [2] was 43 nM.
